The values below come from publication PMC11803614 (2025).

As a reminder, the Kd is the free concentration of one partner at which half of the binding sites on the other are occupied at equilibrium, for simple one-to-one binding. A high value points to a looser complex.

What all share (assay): electrochemical aptamer-based sensor, square-wave voltammetry titration (KDM)
The subject of experiment [1] is tryptophan (DNA, aptamer) CCGGTGGTGTAGTTCCGGCGTGGGGAAGG
To be noted: PBS (ion concentrations not given), room temperature, 0% carboxylate SAM, immobilised aptamer, biphasic, higher affinity event.

Experiment [2] concerns procaine (DNA, aptamer) AGACAAGGAAAATCCTTCAACGAAGTGGGTCG
Conditions: undiluted bovine blood, room temperature and 37 °C; 0% carboxylate SAM; no Kd, upper plateau not reached.

Experiment [3] has as its system vanc-45 (also printed vanc-48) (DNA, aptamer) CGAGGGTACCGCAATAGTACTTATTGTTCGCCTATTGTGGGTCGG
To be noted: PBS (ion concentrations not given), room temperature, 0% carboxylate (6-mercaptohexanol) SAM, immobilised aptamer.

Experiment [4] has as its system vanc-28 (DNA, aptamer) GCGAGGGTACCGCTTAAAGTGGGTCGGC
To be noted: PBS (ion concentrations not given), room temperature, 0% carboxylate (6-mercaptohexanol) SAM, immobilised aptamer.

`N[C@@H](Cc1c[nH]c2ccccc12)C(=O)O` came in with a Kd in experiment [1] of 13.0 ± 1.4 µM.
As to `CCN(CC)CCOC(=O)c1ccc(N)cc1`, the binding result in experiment [2] is “yes”.
With `CN[C@H](CC(C)C)C(=O)N[C@H]1C(=O)N[C@@H](CC(N)=O)C(=O)N[C@H]2C(=O)N[C@H]3C(=O)N[C@H](C(=O)N[C@H](C(=O)O)c4cc(O)cc(O)c4-c4cc3ccc4O)[C@H](O)c3ccc(c(Cl)c3)Oc3cc2cc(c3O[C@@H]2O[C@H](CO)[C@@H](O)[C@H](O)[C@H]2O[C@H]2C[C@](C)(N)[C@H](O)[C@H](C)O2)Oc2ccc(cc2Cl)[C@H]1O`, the Kd was found to be 15.2 ± 0.4 µM in experiment [3] and 0.6 ± 0.1 µM in experiment [4].
